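Tested at 5 concentrations; 48 h exposure; 96-well plates; endpoints linearly interpolated, else capped at highest concentration. Here, GI50 denotes the concentration required for 50% inhibition of growth. TGI: concentration producing complete growth inhibition.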
Experiments:
Assay in all cases: DTP human tumour cell line panel, 48 h
OVCAR-8 ovarian = tested on: OVCAR-8 ovarian
KM12 colon = tested on: KM12 colon
SR leukemia = tested on: SR leukemia
SN12C renal = tested on: SN12C renal
HOP-92 NSCLC = tested on: HOP-92 NSCLC
HOP-62 NSCLC = tested on: HOP-62 NSCLC
EKVX NSCLC = tested on: EKVX NSCLC
NCI-H226 lung = tested on: NCI-H226 lung
RPMI-8226 leukemia = tested on: RPMI-8226 leukemia
NCI-H23 lung = tested on: NCI-H23 lung

SMILES	GI50 (OVCAR-8 ovarian)	TGI (OVCAR-8 ovarian)	GI50 (KM12 colon)	TGI (KM12 colon)	GI50 (SR leukemia)	TGI (SR leukemia)	GI50 (SN12C renal)	TGI (SN12C renal)	GI50 (HOP-92 NSCLC)	TGI (HOP-92 NSCLC)	GI50 (HOP-62 NSCLC)	TGI (HOP-62 NSCLC)	GI50 (EKVX NSCLC)	TGI (EKVX NSCLC)	GI50 (NCI-H226 lung)	TGI (NCI-H226 lung)	GI50 (RPMI-8226 leukemia)	TGI (RPMI-8226 leukemia)	TGI (NCI-H23 lung)	GI50 (NCI-H23 lung)
OCCCN=NNc1ccc(-c2nc3ccccc3[nH]2)cc1	3.12 µM	> 100 µM	5120 nM	24.9 µM	29900 nM	> 100 µM	14.3 µM	46.6 µM	14800 nM	66.5 µM	50.5 µM	71.3 µM	15.5 µM	52.6 µM	26.2 µM	58.9 µM	34200 nM	> 100 µM	–	–
COC1(OC)CC2C=C(S(=O)(=O)c3ccccc3)C1N(Cc1ccccc1)C2=O (configuration not stated)	–	64.7 µM	–	92.3 µM	–	> 100 µM	–	68.2 µM	–	95.5 µM	–	> 100 µM	–	> 100 µM	–	75.9 µM	–	–	40.5 µM	–
Cn1c2c(c3ccccc31)C1CCCCC1C1C(=O)NC(=O)C21 (configuration not stated)	–	> 100 µM	–	> 100 µM	–	> 100 µM	–	> 100 µM	–	–	–	–	–	> 100 µM	–	> 100 µM	–	> 100 µM	> 100 µM	–
CSc1cnn(CCC#N)c(=O)n1	–	> 100 µM	–	> 100 µM	–	> 100 µM	–	> 100 µM	–	–	–	> 100 µM	–	> 100 µM	–	> 100 µM	–	> 100 µM	> 100 µM	–
O=C(CO)CC(=O)C(=O)Nc1nc([N+](=O)[O-])cs1	–	> 100 µM	–	> 100 µM	–	> 100 µM	–	> 100 µM	–	–	–	> 100 µM	–	> 100 µM	–	> 100 µM	–	> 100 µM	> 100 µM	–
COc1cc2c(cc1OCCOS(C)(=O)=O)N=C[C@@H]1CCCN1C2=O	–	> 100 µM	–	> 100 µM	11100 nM	32.9 µM	–	> 100 µM	–	50.6 µM	–	–	–	> 100 µM	15.4 µM	33.5 µM	12200 nM	48.8 µM	25.2 µM	12.2 µM
CCCCCCCC/C=C/CCCCCCCCC1=NCCN1CCO	3.88 µM	21.7 µM	2710 nM	7.64 µM	1900 nM	4.95 µM	4.19 µM	15.9 µM	976 nM	3.4 µM	5.29 µM	29.4 µM	–	–	9.91 µM	33.7 µM	–	–	28.3 µM	10.9 µM
CC(C)c1ccccc1NC(=O)C(=O)Cc1nc2ccccc2s1	–	> 100 µM	–	> 100 µM	–	> 100 µM	–	> 100 µM	–	> 100 µM	–	> 100 µM	–	> 100 µM	–	> 100 µM	–	–	> 100 µM	–
O=C(OCc1ccccc1)N1CCN(/[N+]([O-])=N/Oc2ccc([N+](=O)[O-])cc2[N+](=O)[O-])CC1	31.5 µM	> 100 µM	8660 nM	24.2 µM	4700 nM	> 100 µM	11.5 µM	30.1 µM	–	–	12.3 µM	28 µM	16.7 µM	35 µM	3.55 µM	26.3 µM	2230 nM	6.1 µM	44.8 µM	6.45 µM
COc1ccc2oc3c4c2c1CCC4CCC3=O (configuration not stated)	–	> 100 µM	–	> 100 µM	–	> 100 µM	–	> 100 µM	–	> 100 µM	–	> 100 µM	–	> 100 µM	–	–	–	> 100 µM	> 100 µM	–
O=C1C(Br)=CC2(C=C1Br)CCN=c1c2c(O)c2nc3ccccc3c3ccnc1c23	0.918 µM	2.39 µM	2420 nM	8.67 µM	195 nM	5.83 µM	1.54 µM	5.92 µM	593 nM	2.38 µM	7.99 µM	15.6 µM	7.23 µM	15.1 µM	–	–	591 nM	1.57 µM	8.41 µM	1.91 µM
CCC[CH2][Sn]([CH2]CCC)([O]C(=O)c1cc(F)cc(F)c1)[O]C(=O)c1cc(F)cc(F)c1	1.39 µM	2.68 µM	1630 nM	3 µM	459 nM	3.29 µM	1.35 µM	2.68 µM	1240 nM	2.49 µM	2.39 µM	4.19 µM	1.29 µM	2.55 µM	1.34 µM	2.65 µM	–	–	2 µM	0.7 µM
CN(C)c1ccc(C(=C2C=CC(=[N+](C)C)C=C2)c2ccc(N(C)C)cc2)cc1 (tested in a mixture with another compound)	–	–	37.9 nM	0.172 µM	31.3 nM	0.106 µM	–	–	–	0.714 µM	0.0446 µM	1.29 µM	0.0725 µM	6.45 µM	–	–	40 nM	–	–	–
NC(=O)C1=NNc2ccccc2C(=O)N1c1ccccc1	–	> 100 µM	–	> 100 µM	–	> 100 µM	–	> 100 µM	–	–	–	> 100 µM	–	> 100 µM	–	> 100 µM	–	> 100 µM	–	–

— PubChem BioAssay (NCI)
